Reference: patent US20080051365A1, “Treatment of Inflammation” (CAN-FITE BIOPHARMA LTD., priority 2004, published 2008)

Experiments:
[1] = tested on: Adjuvant induced Arthritis (AIA) rats; experiment: Adjuvant induced arthritis (AIA) in rats, arthritis clinical score; format: in vivo, rat; conditions: female Lewis rats, CF101 10 μg/kg orally twice daily from day 14, MTX 0.25 or 0.75 mg/kg intraperitoneally every 3 days from day 14, versus vehicle
Protocol: Female Lewis rats, aged 8-12 weeks were obtained from Harlan Laboratories (Jerusalem, Israel). Rats were maintained on a standardized pelleted diet and supplied with tap water. Experiments were performed in accordance with the guidelines established by the Institutional Animal Care and Use Committee at Can-Fite BioPharma, Petah Tikva, Israel. The rats were injected subcutaneously (SC) at the tail base with 100 μl of suspension composed of incomplete Freund's adjuvant (IFA) with 10 mg/ml heat killed Mycobacterium tuberculosis, (Mt) H37Ra, (Difco, Detroit, USA). Each group contained 10 animals.
Treatment with CF101 (10 μg/kg) was initiated on day 14 after vaccination and was orally administered by gavage, twice daily. Another group was treated with Methotrexate (MTX) (0.25, 0.75 mg/kg) intraperitoneally every 3 days, starting on day 14th after vaccination. The control group in each experiment received vehicle only (DMSO in a dilution corresponding to that of the drugs).
Clinical Disease Activity Score was assessed as follows: the animals were inspected every second day for clinical arthritis. […] The clinical score was calculated by adding the four individual legs' score. The inflammatory intensity was also determined in accordance with the increase in the rat hind paw's diameter, measured by caliper (Mitotoyo, Tokyo, Japan).

[2] = cited from earlier work
[3] = oral CF101, healthy young men; cited from earlier work

SMILES | disease severity evaluated by the arthritis clinical score [1] | half life in mice [2] | half life in human plasma [3]
CNC(=O)[C@H]1OC(n2cnc3c(NCc4cccc(I)c4)ncnc32)[C@H](O)[C@@H]1O (stereo partly drawn) [CF101, 1-deoxy-1-[6-[[(3-iodophenyl)methyl]amino]-9H-purine-9-yl]-N-methyl-D-ribofuranuronamide] | significant decrease in disease severity | 1.5 h | 8 to 10 h
CN(Cc1cnc2nc(N)nc(N)c2n1)c1ccc(C(=O)N[C@@H](CCC(=O)O)C(=O)O)cc1 [MTX, Methotrexate, reference compound] | significant decrease in disease severity | – | –
